{"source": "paper PMC9376946", "about": "“Peptide-RNA Coacervates as a Cradle for the Evolution of Folded Domains” (Journal of the American Chemical Society, 2022)", "test_system": "polyU", "test": "CW-EPR of PA-12 in the presence of polyU (bound, slow-motion population)", "type": "binding", "conditions": "spectral simulation", "method": "Lyophilized, spin-labeled peptides were dissolved in Milli-Q water and centrifuged at 4000 rpm for 10 min to remove insoluble aggregates. The soluble fractions were used to prepare stock solutions of 250–500 μM peptide. Labeled peptide concentrations were determined by comparing the area under the curve of the EPR signal against that of standard solutions of 10–285 μM TEMPO. For the EPR measurements in D2O, 200 μL of the stock solution was lyophilized and re-dissolved in D2O. The concentration of the unlabeled peptide stock solutions was determined using the bicinchoninic acid assay (Thermo Fisher Scientific) and ranged from 0.8 to 1.2 mM peptide. A stock solution of 500 mM MES, pH 5.6 was used to adjust all samples to a final concentration of 50 mM MES, pH 5.6. Aliquots of 10 mg/mL polyuridylic acid (polyU; Sigma Aldrich) were prepared in Milli-Q water and diluted as necessary. For CW-EPR measurements, a quartz capillary of 0.6 mm i.d. and 0.84 mm o.d. was filled with 7–8 μL of the sample and sealed with Critoseal (Fisherbrand, Fisher Scientific) at one end. A single capillary was placed in an X-band EPR tube of 2 mm i.d. and 2.4 mm o.d. for measurements, except for spin concentration below 50 μM, where two capillaries were used.\nEach sample was freshly prepared and the time to collect […] CW-EPR data was 30–40 min.\nCW-EPR spectra were recorded on an Elexsys E500 X-Band (9.5 GHz) Bruker spectrometer using a high sensitivity resonator at room temperature. The following parameters were used: 0.1 mT field modulation amplitude, a 15 mT scan range, and 20 mW microwave power. Each scan was 42 s and at least 9 scans were accumulated for each data set. For samples with a high concentration of polyU or a low concentration of labeled peptide, at least 25–36 scans were collected to improve the signal to noise (S/N) ratio. Simulations of the spectra were performed using the “Chili” routine of EasySpin (www.easyspin.org).[21]\nAfter characterizing the dynamic and structural properties of PA in solution, we proceeded to explore these properties upon interaction with the homopolymeric RNA molecule polyU. […] PA-12, like the unlabeled peptide, produced coacervates.[17] […] Using CW-EPR, binding of PA to RNA can be tracked through spin label dynamics. We initially kept the concentration of PA-12 constant at 150 μM and varied the amount of polyU. The CW-EPR spectra in Figure 3B indicate superposition of two populations, I and II. […] The relative intensity of II increases with the amount of polyU added, indicating binding of PA-12 to polyU. The percentage of II increased from 32% at 0.1 mg/mL polyU to 93% at 1 mg/mL polyU. Increasing to 2 mg/mL polyU and reducing the PA-12 concentration to 100 μM increased the population of II to 95% (Figures 3B and S15G). Such restricted motion and dynamic components have also been reported for proteins undergoing phase separation.[38],[39]", "note": "Where “and” joins values, the source holds several entries; their conditions need not be identical. Identical values can stand only once."}
{"sequence": "RIRRASVEELTCVPGIGPRLARRILERLA [PA-12, Precursor-Arg peptide in which position 12 has been modified with a cysteine and attached to an M-TEMPO spin label]", "values": [{"measurement": "population I (fast motion)", "setting": "30 μM PA-12, 1 mg/mL polyU", "value": "40 ± 5% and 40%"}, {"measurement": "population II (slow motion, polyU-bound)", "setting": "30 μM PA-12, 1 mg/mL polyU", "value": "60 ± 5% and 60%"}, {"measurement": "population I (fast motion)", "setting": "50 μM PA-12, 1 mg/mL polyU", "value": "25 ± 5", "unit": "%"}, {"measurement": "population II (slow motion, polyU-bound)", "setting": "50 μM PA-12, 1 mg/mL polyU", "value": "75 ± 5", "unit": "%"}, {"measurement": "population I (fast motion)", "setting": "100 μM PA-12, 1 mg/mL polyU", "value": "10 ± 4", "unit": "%"}, {"measurement": "population II (slow motion, polyU-bound)", "setting": "100 μM PA-12, 1 mg/mL polyU", "value": "90 ± 4", "unit": "%"}, {"measurement": "population II (slow motion, polyU-bound)", "setting": "100 μM PA-12, 2 mg/mL polyU, 50 mM MES pH 5.6, room temperature", "value": 95, "unit": "%"}, {"measurement": "population II (slow motion, polyU-bound)", "setting": "150 μM PA-12, 0.1 mg/mL polyU, 50 mM MES pH 5.6, room temperature", "value": 32, "unit": "%"}, {"measurement": "population II (slow motion, polyU-bound)", "setting": "150 μM PA-12, 1 mg/mL polyU, 50 mM MES pH 5.6, room temperature", "value": "93 ± 2% and 93%"}, {"measurement": "population I (fast motion)", "setting": "150 μM PA-12, 1 mg/mL polyU", "value": "7 ± 2", "unit": "%"}, {"measurement": "population I (fast motion)", "setting": "200 μM PA-12, 1 mg/mL polyU", "value": "4 ± 2", "unit": "%"}, {"measurement": "population II (slow motion, polyU-bound)", "setting": "200 μM PA-12, 1 mg/mL polyU", "value": "96 ± 2% and 96%"}]}
